The subject of one data set is A. fumigatus. Format: cell-based, A. fumigatus (KCTC 6145). The settings on record: 36 h. The text has this:
(§1) Aspergillus flavus (KCTC 6905), A. fumigatus (KCTC 6145), Fusarium moniliforme (KCTC 6149), F. oxysporum (KCTC 16909), C. albicans (KCTC 7270), C. krusei (CCARM 14017), C. parapsilosis (CCARM 14016), C. tropicalis (KCTC 7221), and T. beigelii (KCTC 7707) were obtained from the Korea Collection for Type Cultures (KCTC) and Culture Collection of Antimicrobial Resistant Microbes (CCARM). Mold and yeast fungi were pre-grown on potato dextrose (PD) and yeast extract peptone dextrose (YPD) agars, respectively.
(§2) Antifungal activity of peptides was performed by microtiter plate assays. Fungal conidia from four-day-old molds were collected using 0.08% Triton X-100 (v/v), and pre-cultivated yeast cells were adjusted to 2 × 10^4 spores/mL in 10 mM sodium phosphate buffer (SP, pH 7.2) or 10 mM 2-(N-morpholino)ethanesulfonic acid (MES) buffer (pH 5.5) supplemented with 20% culture medium, followed by addition to peptide solutions (0.25, 0.5, 1, 1.5, 2, 4, 6, 8, 12, 16, 32, 48, and 64 µM) in 96-well microtiter plates. After incubation for 36 h at 28 °C, the hyphal growth of conidia and the proliferation of yeast cells were observed under a light microscope. All assays were performed in triplicate. The MIC values were defined as the lowest concentration of samples that reduced fungal germination (for mold) or cell proliferation (for yeast) by more than 90% [34].

The subject of another data set is F. moniliforme. Format: cell-based, Fusarium moniliforme (KCTC 6149). As to conditions: 36 h.
Text: as §1, §2

The test system of a further data set is F. oxysporum. Type of data set: cell-based, F. oxysporum (KCTC 16909). As to conditions: 36 h.
Text: as §1, §2

For a further data set, the system named is C. krusei. Type of data set: cell-based, C. krusei (CCARM 14017). The settings on record: 36 h.
Text: as §1, §2

Another data set has as its system C. parapsilosis. Type of data set: cell-based, C. parapsilosis (CCARM 14016). The settings on record: 36 h.
Text: as §1, §2

A further data set deals with HaCaT cells. Kind of data set: Cytotoxicity, XTT cell viability assay. Format: cell-based, human. The settings on record: peptides 4-256 µM, 24 h incubation, triplicate. The protocol: Cell viability was assessed using sodium XTT assays. HaCaT (human immortalized keratinocytes) cells were cultured in Dulbecco’s modified Eagle medium (DMEM; ThermoFisher Scientific, Gibco, Waltman, MA, USA) supplemented with antibiotic-antimycotic (ThermoFisher Scientific, Gibco) and 10% fetal bovine serum (FBS; ThermoFisher Scientific, Gibco) at 37 °C in a humidified chamber containing 5% CO2. The cells were seeded at 5 × 10^4 cells/mL in flat-bottom 96-well microtiter plates in triplicate. Twenty-four hours later, cells were treated with two-fold serial dilutions of peptides (ranging from 256 to 4 µM) in medium, and the cells were further incubated for 24 h. Next, activated-XTT solution was added to each well and the plates were additionally incubated for 4 h. Absorbance in each well was measured at wavelengths of 480 and 650 nm using a microtiter SpectraMax M5 reader (Molecular Devices, Sunnyvale, CA, USA). Triton X-100 (0.1% v/v) and DMEM were used as controls for survival.
In general terms: Tetrazolium assays rely on reduction of a dye to a coloured formazan, in cell work by metabolically active cells.

Another data set deals with mouse erythrocytes. The data set can be described thus: Hemolytic assay. Format: cell-based. As to conditions: 64 µM peptide, 8% (v/v) mRBCs, 37 °C, 2 h (method) / 4 h (figure legend). As for the experimental part:
Mouse blood was collected into sodium heparin-coated tubes (BD Vacutainer; BD Diagnostics, Oxford, UK). The mRBCs were obtained by centrifugation (800× g, 10 min) and washing with PBS. The washed mRBCs were added to a final concentration of 8% (v/v) in 64 µM peptide solution, followed by incubation for 2 h at 37 °C. After centrifugation, each tube was digitally recorded.

A further data set concerns C. tropicalis. The data set can be described thus: C. tropicalis skin infection mouse model. Format: in vivo, BALB/C female mice. The protocol:
All animal experiments and procedures were performed with the approval of the Institutional Animal Care and Use Committee (IACUC) of Sunchon National University, Korea (SCNU IACUC-2019-10). BALB/C female mice (six weeks old) were obtained from Koatech Co. (Pyongtaek, Gyeonggido, Korea) and divided into three groups (n = 4): control, pseudin-2, and P2-LZ4 groups. The skin on the back of each mouse was shaved 1 h before infection, and the mice were anesthetized by inhalation of 5% (induction) and 2% (maintenance) isoflurane in pure oxygen. Mice were then subjected to subcutaneous infection with 100 µL C. tropicalis (10^7 cells/mL) by injection into the dorsum of each mouse. At 24 h after infection, 100 µL PBS, pseudin-2 (0.1 mg/mL), or P2-LZ4 (0.1 mg/mL) was injected into the same site. At four days after peptide injection, mice were euthanized by CO2 inhalation, and the infected skin tissues were excised, fixed in 4% paraformaldehyde, embedded in paraffin, stained with H&E, and observed by light microscopy.

Data set [1] deals with C. tropicalis cells. The data set can be described thus: SYTOX Green uptake (membrane permeability). Format: cell-based. As to conditions: SP buffer pH 7.2, 0.5 μM SYTOX Green, peptides 1-64 µM, monitored 30 min. The protocol: C. tropicalis cells pre-grown at 28 °C were washed and suspended (2 × 10^6 cells/mL) in SP buffer (pH 7.2). The cells were pre-incubated with SYTOX Green (final concentration of 0.5 μM) for 15 min in the dark, followed by adding two-fold serial dilutions of peptides at concentrations of 1 to 64 µM. The fluorescence intensity was monitored for 30 min at 485 (Ex) and 520 (Em) nm using a microtiter SpectraMax M5 reader (Molecular Devices, San Jose, CA, USA).

Data set [2] has as its system C. tropicalis cells. The data set can be described thus: Mitochondrial superoxide, MitoSOX Red flow cytometry. Type of data set: cell-based. The settings on record: peptide at MIC for 8 h. As for the experimental part: Mitochondrial SOX was measured using MitoSOX Red probe. C. tropicalis cells (2 × 10^4 spores/mL) were treated with samples at the appropriate MIC for 8 h and then stained with MitoSOX Red according to the manufacturer’s instructions. The stained cells were acquired by flow cytometry (Attune NxT Acoustic Focusing Cytometer; ThermoFisher Scientific Co., Eugene, OR, USA) at 561 nm by 10,000 total events.
(In general: A flow cytometer gives signals particle by particle.)

Read-outs that look alike come from different tables or passages of the source. No end group written: not given here. Where only a bound is given, the exact number is not on record here.

Consider “GLNALKKVFQGIHEAIKLINNHVQ-NH2 [Pseudin-2]”, for which the MIC was determined as 24 µM in the data set on A. fumigatus (pH 5.5); 64 µM against A. fumigatus (pH 7.2); 64 µM with F. moniliforme (pH 5.5); 32 µM against F. moniliforme (pH 7.2); 16 µM against F. oxysporum (pH 5.5); 4 µM against F. oxysporum (pH 7.2). Moreover, the MIC against C. krusei (pH 5.5) is given as 8 (8) µM; in the data set with C. krusei (pH 7.2), 8 (8) µM; against C. parapsilosis (pH 5.5), >64 (>64) µM; in the data set on C. parapsilosis (pH 7.2) it was >64 (>64) µM. The “cytotoxic effects against HaCaT cells” value in the data set with HaCaT cells is “significant, concentration-dependent cytotoxic effects”. Moreover, the “hemolytic effects (hemoglobin release, by visualization)” value with mouse erythrocytes is listed as “did not release hemoglobin”. The “histological evaluation of skin tissues (H&E)” value in the data set on C. tropicalis (100 µL of 0.1 mg/mL peptide s.c. 24 h after infection, tissues taken four days after peptide injection) is listed as “able to recover from histological lesions”. Also, in the data set on C. tropicalis (100 µL of 0.1 mg/mL peptide s.c. 24 h after s.c. infection, monitored seven days, n = 4), the “skin lesions (swelling and redness in the dorsal skin)” value was “reduced swelling and redness”. In the data set on C. tropicalis cells [1], the “SYTOX Green fluorescence intensity” value was “gradual, concentration-dependent increases in fluorescence intensity”. Besides, the “MitoSOX Red fluorescence (mitochondrial SOX)” value in the data set on C. tropicalis cells [2] is “a little right shift”.

The values above are taken from PMC7766124, “Improved Cell Selectivity of Pseudin-2 via Substitution in the Leucine-Zipper Motif: In Vitro and In Vivo Antifungal Activity” (Antibiotics, 2020).
